Measurements as given in patent EP0974362A1, “DRUGS CONTAINING ENZYME INHIBITORS AS THE ACTIVE INGREDIENT” (CHUGAI SEIYAKU KABUSHIKI KAISHA, priority 1997, dated 1998).
Where two headings read alike, the source gives them in different places.

Key:
[1] = target: T1, adenylosuccinate synthase (Oryctolagus cuniculus, UniProt G1TGN8); assay: adenylosuccinate synthase inhibition (change of absorbance at 285 nm with time); assay type: biochemical
T1 sequence (G1TGN8 with tags, fused parts or gaps): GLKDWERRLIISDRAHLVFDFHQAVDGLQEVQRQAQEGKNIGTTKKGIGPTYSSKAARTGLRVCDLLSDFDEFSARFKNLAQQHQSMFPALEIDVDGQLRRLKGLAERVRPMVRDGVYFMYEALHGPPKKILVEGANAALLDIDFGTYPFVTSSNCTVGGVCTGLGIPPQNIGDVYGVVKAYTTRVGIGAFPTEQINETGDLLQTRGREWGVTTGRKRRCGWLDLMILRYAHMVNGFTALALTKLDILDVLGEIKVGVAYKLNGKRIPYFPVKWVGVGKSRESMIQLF
Text: As existing adenylosuccinate synthase inhibitors, hydantocidin-5'-monophosphate and hadacidin were chosen and compared for their level of enzyme inhibitory activity. Hydantocidin-5'-monophosphate was synthesized by debenzylating an intermediate synthesized by the method of Mio et al. (Tetrahedron, 47, 2133-2144, 1991), [2R, 3R, 4R, 5S]-6-N-acetyl-2-benzyloxymethyl-3,4-isopropylidene-1-oxa-6,8-diazaspiro[4,4]nonane-7,9-dione (Compound 24) and then converting it into its diphenyl phosphate ester, followed by deacetonidation, deacetylation and dephenylation by catalytic reduction. Hadacidin was synthesized by the method of Jahngen-Rossomand (Synth. Commun. 12, 601-606, 1982). Adenylosuccinate synthase was purified from rabbit muscles by the method of Fischer et al. (Methods in Enzymol. LI, 207-213). Each inhibitor (hydantocidin-5'-monophosphate or hadacidin at a final concentration of 1µM-1mM) (10 µl) and a substrate solution (50 mM HEPES, pH 7.3, 1 mM MgCl2, 0.2 mM GTP, 0.2 mM IMP, 2.5 mM Asp [each final concentration]) (60 µl) were added to adenylosuccinate synthase (10 µl) added dropwise into a microspectroscopic cell, and mixed together, then the microspectroscopic cell was immediately set in a spectrophotometer BECKMAN DU650 (Beckman) to determine change of absorbance at 285 nm with time for a period of 2 to 5 minutes after the reaction was started.

[2] = system: CCRF-CEM cells lacking MTAP activity; assay: cell growth, MTT method; assay type: cell-based, human
Experimental: (§1) CCRF-CEM cells lacking MTAP activity and Raji cells having MTAP activity suspended in a modified MEM Zn^++ medium (GIBCO BRL) containing 10% dialyzed horse serum (GIBCO BRL) pretreated at 56°C for 30 minutes were plated on 96-well microplates at concentrations of 1.5 x 10^5 cells/ml and 5 x 10^4 cells/ml, respectively, and adenylosuccinate synthase inhibitors (hydantocidin-5'-monophosphate and hadacidin at a final concentration of 1 µM-1mM) were added to 100 µl/well in the presence or absence of a substrate for MTAP, MTA (final concentration 10 µM). After incubation in the presence of 5% CO2 at 37°C for 2 days, the survival cell number was counted by the MTT method (J. Immunol. Methods, 65, 55-63, 1983) (using Cell Titer 96® Aqueous Non-Radioactive Cell Proliferation Assay [Promega]) to assess effects on cell growth.

[3] = system: Raji cells having MTAP activity; assay: cell growth, MTT method; assay type: cell-based, human
Experimental: as §1

[4] = system: human glioma cell line T98G having MTAP activity; assay: cell growth, MTT method, 3 days incubation; assay type: cell-based; settings: Fig. 4B
Experimental: (§2) Cell extracts were reacted with [8-^14C] MTA, a substrate for MTAP, and the reaction solutions were partially developed by thin-layer chromatography to visualize spots corresponding to [^14C] adenine produced by the action of MTAP in the presence of [8-^14C] […] The same experiment was performed as for Raji cells in Fig. 3 except that incubation was performed for 3 days. […] The same experiment was performed as for Raji cells in Fig. 3 except that incubation was performed for 3 days and that [^3H] thymidine uptake for 5 hours was assayed. […]
as §1

[5] = system: human glioma cell line A-172 lacking MTAP activity; assay: cell growth, MTT method, 3 days incubation; assay type: cell-based; settings: Fig. 4A
Experimental: as §2, §1

[6] = system: human pancreatic cancer cell line BxPC-3; assay: cell growth, [3H] thymidine uptake; assay type: cell-based; settings: 3 days incubation; [3H] thymidine uptake for 5 hours; Fig. 5B
Experimental: as §2, §1

[7] = system: human non-small cell lung cancer cell line A549; assay: cell growth, [3H] thymidine uptake; assay type: cell-based; settings: 3 days incubation; [3H] thymidine uptake for 5 hours; Fig. 5A
Experimental: as §2, §1

[8] = absence of MTA, compared with CCRF-CEM in presence of MTA, 2 days

| SMILES | IC50 ([1]; enzyme purified from rabbit muscles; 0.2 mM GTP, 0.2 mM IMP, 2.5 mM Asp, pH 7.3; read-out: IC50 (inhibited adenylosuccinate synthase activity)) [µM] | IC50 ([2]; Homo sapiens, CCRF-CEM, 48 h, read-out: IC50 (cytotoxicity)) [µM] | level of cytotoxicity in the absence of MTA [2, 8] | cytotoxicity ([3]; MTA added (final concentration 10 µM), 2 days incubation) | level of cytotoxicity in the absence of MTA [3, 8] | toxicity [4] | toxicity [5] | growth inhibitory effects [6] | growth inhibitory effects [7] | IC50 ([1]; read-out: IC50 (inhibited adenylosuccinate synthase activity); enzyme purified from rabbit muscles; 0.2 mM GTP, 0.2 mM IMP, 2.5 mM Asp, pH 7.3) [µM] |
| --- | --- | --- | --- | --- | --- | --- | --- | --- | --- | --- |
| O=CN(O)CC(=O)O [hadacidin] | 10 | – | – | – | – | – | – | – | – | – |
| O=C1NC(=O)[C@@]2(N1)O[C@H](COP(=O)(O)O)[C@@H](O)[C@H]2O [hydantocidin-5'-monophosphate] | – | 30 | comparable | did not show cytotoxicity | comparable | showed selective toxicity | showed selective toxicity | showed growth inhibitory effects | showed growth inhibitory effects | 0.03 |
